Consider 23 compounds from patent publication US20100210617A1, “Aryl-Alkylamines And Heteroaryl-Alkylamines As Protein Kinase Inhibitors” (ASTEX THERAPEUTICS LIMITED, priority 2005, published 2010).

Molecules are shown by their SMILES. Counter-ions that a name gives are not always drawn.

One assay concerns the target T1, PKA catalytic domain (Homo sapiens, UniProt P17612).
T1 construct: using the PKA catalytic domain from Upstate Biotechnology (#14-440); purchased Upstate Biotechnology 14-440
Put plainly: Measurement of PKA kinase inhibitory activity (IC50). Type of assay: biochemical. To be noted: 1 nM enzyme, 40 μM ATP/γ33P-ATP, 5 μM peptide substrate […], 20 minutes; read-out: IC50, concentration required to inhibit 50% of the PKA activity. The method, then: A final concentration of 1 nM enzyme is used in a buffer that includes 20 mM MOPS pH 7.2, 40 μM ATP/γ^33P-ATP and 5 μM substrate. Compounds are added in dimethylsulphoxide (DMSO) solution to a final DMSO concentration of 2.5%. The reaction is allowed to proceed for 20 minutes before addition of excess orthophosphoric acid to quench activity. Unincorporated γ^33P-ATP is then separated from phosphorylated proteins on a Millipore MAPH filter plate. The plates are washed, scintillant is added and the plates are then subjected to counting on a Packard Topcount.

The target of assay [1] is T2, protein kinase B (PKB), fusion protein PKB-PIF (Homo sapiens, UniProt P31751).
T2 construct: made in house
Put plainly: Measurement of PKB kinase inhibitory activity (IC50). The settings on record: 0.6 nM enzyme, 30 μM ATP/γ33P-ATP, 25 μM AKTide-2T substrate, 20 minutes; read-out: IC50, concentration required to inhibit 50% of the PKB activity. The assay is classed as biochemical. The method, then:
The inhibition of protein kinase B (PKB) activity by compounds can be determined essentially as described by Andjelkovic et al. (Mol. Cell. Biol. 19, 5061-5072 (1999)) but using a fusion protein described as PKB-PIF and described in full by Yang et al (Nature Structural Biology 9, 940-944 (2002)). […] A final concentration of 0.6 nM enzyme is used in a buffer that includes 20 mM MOPS pH 7.2, 30 μM ATP/γ^33P-ATP and 25 μM substrate. Compounds are added in DMSO solution to a final DMSO concentration of 2.5%. The reaction is allowed to proceed for 20 minutes before addition of excess orthophosphoric acid to quench activity. The reaction mixture is transferred to a phosphocellulose filter plate where the peptide binds and the unused ATP is washed away. After washing, scintillant is added and the incorporated activity measured by scintillation counting.
The % inhibition of the PKB activity is calculated and plotted in order to determine the concentration of test compound required to inhibit 50% of the PKB activity (IC50).

T2 sequence (P31751 with tags, fused parts or gaps limits assumed): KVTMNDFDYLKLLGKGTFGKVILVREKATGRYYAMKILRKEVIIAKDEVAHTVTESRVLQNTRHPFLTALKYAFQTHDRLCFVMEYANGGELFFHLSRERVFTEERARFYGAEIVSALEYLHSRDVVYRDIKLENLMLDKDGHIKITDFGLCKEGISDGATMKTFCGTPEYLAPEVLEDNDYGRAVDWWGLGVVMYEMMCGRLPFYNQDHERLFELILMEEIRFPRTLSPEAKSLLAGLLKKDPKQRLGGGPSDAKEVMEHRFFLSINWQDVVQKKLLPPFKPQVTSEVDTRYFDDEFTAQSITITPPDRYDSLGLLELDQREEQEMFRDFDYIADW

Consider `NCCC(O)(c1ccc(Cl)cc1)c1ccc(-c2cn[nH]c2)cc1` (racemic) [Example 92, 3-Amino-1-(4-chloro-phenyl)-1-[4-(1H-pyrazol-4-yl)-phenyl]-propan-1-ol], for which the IC50 (at PKA catalytic domain; in assay [1]) was less than 100 nM in each case.

On to `NCCC(c1ccc(-c2cn[nH]c2)cc1)c1ccc(Cl)c(F)c1` (stereo not shown) [Example 1, 3-(4-Chloro-3-fluoro-phenyl)-3-[4-(1H-pyrazol-4-yl)-phenyl]-propylamine], for which the IC50 (at PKA catalytic domain; in assay [1]) was less than 100 nM in each case.

For `NCC[C@H](c1ccc(-c2cn[nH]c2)cc1)c1ccc(Cl)c(Cl)c1` [Example 2, (R)-3-(3,4-Dichloro-phenyl)-3-[4-(1H-pyrazol-4-yl)-phenyl]-propylamine], in assay [1], the IC50 is less than 100 nM.

In the case of `COc1cccc(OCC2(c3ccc(-c4c[nH]nc4C)cc3)CCNCC2)c1` [Example 77, 4-(3-Methoxy-phenoxymethyl)-4-[4-(3-methyl-1H-pyrazol-4-yl)-phenyl]-piperidine], the IC50 (on PKA catalytic domain; in assay [1]) was less than 1000 nM each time.

Consider `Cc1n[nH]cc1-c1ccc(C(O)(CN)c2ccc(Cl)cc2)cc1` (stereo not shown) [Example 79, 2-Amino-1-(4-chloro-phenyl)-1-[4-(3-methyl-1H-pyrazol-4-yl)-phenyl]-ethanol], for which the IC50 (on PKA catalytic domain; in assay [1]) was less than 100 nM throughout.

As for `CCc1n[nH]cc1-c1ccc(C(O)(CN)c2ccc(Cl)cc2)cc1` (stereo not shown) [Example 80, 2-Amino-1-(4-chloro-phenyl)-1-[4-(3-ethyl-1H-pyrazol-4-yl)-phenyl]-ethanol], the IC50 (on PKA catalytic domain; in assay [1]) was less than 100 nM each time.

For `Clc1ccc(C2(c3ccc(-c4cn[nH]c4)cc3)CCNC2)cc1` (stereo not shown) [Example 81, 4-{4-[3-(4-Chloro-phenyl)-pyrrolidin-3-yl]-phenyl}-1H-pyrazole formate], the IC50 (on PKA catalytic domain; in assay [1]) was less than 1000 nM throughout.

For `COc1ccc(C2(c3ccc(-c4cn[nH]c4)cc3)CNC2)cc1` [Example 82, 4-{-4-[3-(4-Methoxy-phenyl)-azetidin-3-yl]-phenyl}-1H-pyrazole formate], the IC50 (on PKA catalytic domain; in assay [1]) was less than 1000 nM in each case.

In the case of `c1cc(C2(c3ccc4c(c3)OCCO4)CCNCC2)ccc1-c1cn[nH]c1` [Example 83, 4-(2,3-Dihydro-benzo[1,4]dioxin-6-yl)-4-[4-(1H-pyrazol-4-yl)-phenyl]-piperidine], the IC50 (on PKA catalytic domain; in assay [1]) was less than 100 nM throughout.

For the compound `Clc1cccc(C2(c3ccc(-c4cn[nH]c4)cc3)CCNCC2)c1` [Example 84, 4-(3-Chloro-phenyl)-4-[4-(1H-pyrazol-4-yl)-phenyl]-piperidine], the IC50 (at PKA catalytic domain; in assay [1]) was less than 100 nM each time.

Take `COc1ccc(-c2cccc(C3(c4ccc(-c5cn[nH]c5)cc4)CCNCC3)c2)cc1` [Example 85, 4-(4′-Methoxy-biphenyl-3-yl)-4-[4-(1H-pyrazol-4-yl)-phenyl]-piperidine dihydrochloride]: the IC50 was less than 100 nM at PKA catalytic domain and less than 1000 nM in assay [1].

As for `COc1ccc(C2(c3ccc(-c4c[nH]nc4C)cc3)CCNCC2)cc1` [Example 86, 4-(4-Methoxy-phenyl)-4-[4-(3-methyl-1H-pyrazol-4-yl)-phenyl]piperidine dihydrochloride], the IC50 (at PKA catalytic domain; in assay [1]) was less than 100 nM in each case.

Take `CCc1[nH]ncc1-c1ccc(C2(c3ccc(Cl)cc3)CCNCC2)cc1` [Example 87, 4-(4-Chloro-phenyl)-4-[4-(5-ethyl-1H-pyrazol-4-yl)-phenyl]-piperidine]: the IC50 (on PKA catalytic domain; in assay [1]) was less than 1000 nM each time.

In the case of `Clc1ccc(C2(c3ccc(-c4cn[nH]c4C4CC4)cc3)CCNCC2)cc1` [Example 88, 4-(4-Chloro-phenyl)-4-[4-(5-cyclopropyl-1H-pyrazol-4-yl)-phenyl]-piperidine], the IC50 on PKA catalytic domain was less than 1000 nM; in assay [1], less than 100 nM.

Turning to `CN(C)c1cccc(C2(c3ccc(-c4cn[nH]c4)cc3)CCNCC2)c1` [Example 89, Dimethyl-(3-{4-[4-(1H-pyrazol-4-yl)-phenyl]-piperidin-4-yl}-phenyl)-amine], the IC50 (at PKA catalytic domain; in assay [1]) was less than 1000 nM each time.

In the case of `COc1ccc(C2(c3ccc(-c4cn[nH]c4)cc3)CCNCC2)cn1` [Example 90, 4-(2-Methoxy-5-pyridin-yl)-4-[4-(1H-pyrazol-4-yl)-phenyl]-piperidine], the IC50 was less than 100 nM on PKA catalytic domain and less than 1000 nM in assay [1].

For the compound `NCC(O)(c1ccc(Cl)cc1)c1ccc(-c2cn[nH]c2)cn1` (stereo not shown) [Example 91, 2-Amino-1-(4-chloro-phenyl)-[5-(1H-pyrazol-4-yl)-pyridin-2-yl]-ethanol hydrochloride], the values for the IC50 (at PKA catalytic domain; in assay [1]) were less than 100 nM and less than 1000 nM, respectively.

With `Cc1n[nH]cc1-c1ccc(C2(COc3cccc(-c4nc5ccccc5o4)c3)CCNCC2)cc1` [Example 93, 2-(3-{4-[4-(3-Methyl-1H-pyrazol-4-yl)-phenyl]-piperidin-4-ylmethoxy}-phenyl)-benzooxazole], the IC50 in assay [1] was less than 100 nM.

Take `NCCC(O)(c1ccc(Cl)cc1)c1ccc(-c2cn[nH]c2)cc1F` (stereo not shown) [Example 94, 3-Amino-1-(4-chlorophenyl)-1-[2-fluoro-4-(1H-pyrazol-4-yl)-phenyl]-propan-1-ol-acetic acid salt]: the IC50 (on PKA catalytic domain; in assay [1]) was less than 100 nM each time.

As to `NCCC(O)(c1ccc(-c2cn[nH]c2)cc1)c1ccc(Cl)c(F)c1` (stereo not shown) [Example 95, 3-Amino-1-(4-chloro-3-fluoro-phenyl)-1-[4-(1H-pyrazol-4-yl)-phenyl]-propan-1-ol], the IC50 (on PKA catalytic domain; in assay [1]) was less than 100 nM throughout.

As to `NCCC(O)(c1ccc(-c2cn[nH]c2)cc1)c1ccc(Cl)c(Cl)c1` (stereo not shown) [Example 96, 3-Amino-1-(3,4,-dichlorophenyl)-1-[4-(1H-pyrazol-4-yl)-phenyl]-propan-1-ol], the IC50 (at PKA catalytic domain; in assay [1]) was less than 100 nM each time.

As to `NCC[C@@](O)(c1ccc(Cl)cc1)c1ccc(-c2cn[nH]c2)cc1` [Example 99A, (S)-3-Amino-1-(4-chloro-phenyl)-1-[4-(1H-pyrazol-4-yl)-phenyl]-propan-1-ol], the IC50 (at PKA catalytic domain; in assay [1]) was less than 100 nM in each case.

For `NCC[C@](O)(c1ccc(Cl)cc1)c1ccc(-c2cn[nH]c2)cc1` [Example 99B, (R)-3-Amino-1-(4-chloro-phenyl)-1-[4-(1H-pyrazol-4-yl)-phenyl]-propan-1-ol], the IC50 in assay [1] was less than 100 nM.
